Assay results as given in US6462055B2, “Alpha-methylbenzyl-containing thiourea inhibitors of herpes viruses containing a phenylenediamine group” (Wyeth, priority 1998, dated 2002).
Values after ≈ are worked out from the molar mass of the structure shown.

Legend:
[1] = tested on: HCMV recombinant mutant virus (RV145); assay: microbe, parasite or virus in culture; type: cell-based, human cytomegalovirus; settings: for IC50: Human betaherpesvirus 5, read-out: IC50 ug/ml HCMV, HCMV
In short: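 Human foreskin fibroblasts infected with HCMV RV145 carrying a viral-promoter-driven beta-glucuronidase gene, in presence of compound. At 96 h post-infection, lysates assayed for beta-glucuronidase with colorimetric or fluorogenic glucuronide substrate as replication read-out. IC50 estimated from varying inhibitor amounts.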

VZV strain Ellen = assay: VZV Antiviral (ELISA) Assay in human foreskin fibroblast cells; type: cell-based, varicella-zoster virus; settings: for IC50 / inhibition at 10 µg/mL: Human alphaherpesvirus 3, Fibroblast; for IC50: read-out: IC50 (ug/ml) VZV; for inhibition at 10 µg/mL: read-out: % inhibition 10 ug/ml VZV, 10 ug/ml
In short: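 HFF cells infected overnight with VZV Ellen at MOI <0.1, mixed with uninfected cells, were seeded with compound and grown 3 days at 37° C in DMEM/2% FBS. Viral glycoprotein II was detected by ELISA with β-galactosidase-linked secondary; IC50 from fluorescence versus no-compound wells.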

HSV-1 = assay: HSV Antiviral (ELISA) Assay in Vero cells; type: cell-based, herpes simplex virus type 1; settings: HSV-1, Vero cells; for IC50: Human alphaherpesvirus 1, read-out: IC50 (ug/ml) HSV
In short: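 Viral replication was quantified by cell-fixed ELISA for HSV glycoprotein D, using a β-galactosidase reporter and fluorogenic umbelliferyl substrate, about 24 h after HSV-1 infection (MOI 0.006) of Vero cells. Compounds, at several concentrations, were added 30 min pre-infection. IC50 was derived from fluorescence relative to the compound-free signal.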

SMILES	IC50 ug/ml HCMV [1]	IC50 (ug/ml) VZV (VZV strain Ellen)	% inhibition 10 ug/ml VZV (VZV strain Ellen)	IC50 (ug/ml) HSV (HSV-1)	IC50 [1]	IC50 (VZV strain Ellen)	IC50 (HSV-1)	inhibition at 10 µg/mL (VZV strain Ellen)
Nc1nccc(-c2ccc(NC(=S)Nc3ccc(NC(=O)c4ccccc4F)cc3)cc2Cl)n1 [Example 502]	1.8 µg/mL (≈ 3.65 µM)	>10 µg/mL	13%	>10 µg/mL	–	–	–	–
COc1ccc(NC(=S)Nc2ccc(NC(=O)c3ccccc3F)cc2)cc1F [Example 995, 2-Fluoro-N-{4-[3-(3-fluoro-4-methoxy-phenyl)-thioureido]-phenyl}-benzamide]	–	–	–	–	> 10 µg/mL	> 10 µg/mL	> 10 µg/mL	–
COc1ccccc1C(C)NC(=S)Nc1ccc(NC(=O)c2ccccc2F)cc1 (stereo not shown) [Example 788]	1.8 µg/mL (≈ 4.25 µM)	>7.5 µg/mL	–	>10 µg/mL	–	–	–	–
O=C(Nc1ccc(NC(=S)Nc2cc(Br)cc(C(F)(F)F)c2)cc1)c1ccccc1F [Example 531]	5 µg/mL (≈ 9.76 µM)	6 µg/mL (≈ 11.7 µM)	–	>10 µg/mL	–	–	–	–
COc1cc(OC)c(NC(=S)Nc2ccc(NC(=O)c3ccccc3N)cc2)cc1Cl [Example 181]	>10 µg/mL	>10 µg/mL	60%	1.5 µg/mL (≈ 3.28 µM)	–	–	–	–
COC(=O)c1cccc(NC(=S)Nc2ccc(NC(=O)c3ccccc3F)cc2)c1 [Example 950, 3-{3-[4-(2-Fluoro-benzoylamino)-phenyl]-thioureido}-benzoic acid methyl ester]	–	–	–	–	> 10 µg/mL	> 10 µg/mL	8 µg/mL (≈ 18.9 µM)	–
COc1cc(OC)c(NC(=S)Nc2ccc(NC(=O)c3ccc(F)c(F)c3F)cc2)cc1Cl [Example 192]	>10 µg/mL	>10 µg/mL	14%	0.5 µg/mL (≈ 1.01 µM)	–	–	–	–
CC(NC(=S)Nc1ccc(NC(=O)c2ccc(O)cc2)cc1)c1ccc(F)cc1 (stereo not shown) [Example 760]	–	–	–	–	> 10 µg/mL	> 10 µg/mL	> 10 µg/mL	–
COc1cc(OC)c(NC(=S)Nc2ccc(NC(=O)c3ccccc3Br)cc2)cc1Cl [Example 142]	–	–	–	–	10 µg/mL (≈ 19.2 µM)	> 15 µg/mL	0.4 µg/mL (≈ 0.768 µM)	51%
CC(NC(=S)Nc1ccc(NC(=O)c2ccccc2Br)cc1)c1ccc(F)cc1 (stereo not shown) [Example 795]	4.1 µg/mL (≈ 8.68 µM)	>7.5 µg/mL	–	8.6 µg/mL (≈ 18.2 µM)	–	–	–	–
COc1cc(OC)c(NC(=S)Nc2ccc(NC(=O)c3ccccc3F)cc2)cc1Cl [Example 118]	3 µg/mL (≈ 6.52 µM)	>10 µg/mL	–	0.15 µg/mL (≈ 0.326 µM)	–	–	–	–
COc1cc(OC)c(NC(=S)Nc2ccc(NC(=O)c3cccc4ccccc34)cc2)cc1Cl [Example 157]	8 µg/mL (≈ 16.3 µM)	>10 µg/mL	32%	0.9 µg/mL (≈ 1.83 µM)	–	–	–	–
Cc1ccc(NC(=S)Nc2ccc(NC(=O)c3ccccc3F)cc2)cc1F [Example 997, 2-Fluoro-N-{4-[3-(3-fluoro-4-methyl-phenyl)-thioureido]-phenyl}-benzylamide]	4 µg/mL (≈ 10.1 µM)	>10 µg/mL	–	1.9 µg/mL (≈ 4.78 µM)	–	–	–	–
CC(C)c1cccc(NC(=S)Nc2ccc(NC(=O)c3ccccc3F)cc2)c1 [Example 452]	2 µg/mL (≈ 4.91 µM)	1 µg/mL (≈ 2.45 µM)	75%	4 µg/mL (≈ 9.82 µM)	–	–	–	–
COc1cc(C)c(Cl)cc1NC(=S)Nc1ccc(NC(=O)c2ccccc2F)cc1Cl [Example 458]	>10 µg/mL	>10 µg/mL	25%	0.06 µg/mL (≈ 0.125 µM)	–	–	–	–
COc1cc(OC)c(NC(=S)Nc2ccc(NC(=O)c3cccc([N+](=O)[O-])c3)cc2)cc1Cl [Example 135]	5 µg/mL (≈ 10.3 µM)	>10 µg/mL	0%	1.5 µg/mL (≈ 3.08 µM)	–	–	–	–

SMILES	IC50 ug/ml HCMV [1]	IC50 (ug/ml) VZV (VZV strain Ellen)	% inhibition 10 ug/ml VZV (VZV strain Ellen)	IC50 (ug/ml) HSV (HSV-1)	IC50 [1]	IC50 (VZV strain Ellen)	IC50 (HSV-1)	inhibition at 10 µg/mL (VZV strain Ellen)
O=C(Nc1ccc(NC(=S)Nc2ccc(F)c(Cl)c2)cc1)c1ccccc1F [Example 922, N-{4-[3-(3-Chloro-4-fluoro-phenyl)-thioureido]-phenyl}-2-fluoro-benzamide]	–	–	–	–	> 10 µg/mL	> 10 µg/mL	1 µg/mL (≈ 2.39 µM)	40%
COc1cc(OC)c(NC(=S)Nc2ccc(NC(=O)c3ccccc3C(=O)O)cc2)cc1Cl [Example 184]	>50 µg/mL	>10 µg/mL	–	>50 µg/mL	–	–	–	–
COc1ccccc1C(=O)Nc1ccc(NC(=S)Nc2cc(Cl)c(OC)c(Cl)c2)cc1 [Example 873]	0.3 µg/mL (≈ 0.63 µM)	>10 µg/mL	23%	>10 µg/mL	–	–	–	–
CC(NC(=S)Nc1ccc(NC(=O)c2ccccc2F)cc1)c1ccccc1F (stereo not shown) [Example 778]	–	–	–	–	0.8 µg/mL (≈ 1.94 µM)	3 µg/mL (≈ 7.29 µM)	> 10 µg/mL	–
CC(NC(=S)Nc1ccc(NC(=O)c2nccc3ccccc23)cc1)c1ccc(F)cc1 (stereo not shown) [Example 976, Isoquinoline-1-carboxylic acid (4-{3-[1-(4-fluoro-phenyl)-ethyl]-thioureido}-phenyl)-amide]	>10 µg/mL	–	–	–	–	0.04 µg/mL (≈ 0.09 µM)	> 10 µg/mL	–
CC(NC(=S)Nc1ccc(NC(=O)c2ccccc2F)cc1)c1ccc(Cl)cc1 (stereo not shown) [Example 781]	1.8 µg/mL (≈ 4.21 µM)	0.6 µg/mL (≈ 1.4 µM)	–	>10 µg/mL	–	–	–	–
COc1c(Cl)cc(NC(=S)Nc2ccc(NC(=O)c3ccc(F)cc3)cc2)cc1Cl [Example 133]	0.6 µg/mL (≈ 1.29 µM)	>10 µg/mL	36%	7 µg/mL (≈ 15.1 µM)	–	–	–	–
COc1ccc(C(=O)Nc2ccc(NC(=S)NC(C)c3ccc(F)cc3)cc2)cc1 (stereo not shown) [Example 754]	>10 µg/mL	0.2 µg/mL (≈ 0.472 µM)	–	>10 µg/mL	–	–	–	–
O=C(Nc1ccc(NC(=S)Nc2ccc3scnc3c2)cc1)c1ccccc1F [Example 484]	>10 µg/mL	>10 µg/mL	28%	0.4 µg/mL (≈ 0.947 µM)	–	–	–	–
O=C(CN1CCCC1)Nc1ccc(NC(=S)Nc2ccc(NC(=O)c3ccccc3F)cc2)cc1Cl [Example 417]	>10 µg/mL	>10 µg/mL	15%	6 µg/mL (≈ 11.4 µM)	–	–	–	–
COc1ccccc1C(=O)Nc1ccc(NC(=S)NC(C)c2ccc(C#N)cc2)cc1 (stereo not shown) [Example 1017, N-(4-{3-[1-(4-Cyano-phenyl)-ethyl]-thioureido}-phenyl)-2-methoxy-benzamide]	–	–	–	–	> 10 µg/mL	0.3 µg/mL (≈ 0.697 µM)	> 10 µg/mL	–
O=C(Nc1ccc(NC(=S)NCc2ccc3c(c2)OCO3)cc1)c1ccccc1F [Example 540]	>0.5 µg/mL	>10 µg/mL	–	>10 µg/mL	–	–	–	–
COc1cc(OC)c(NC(=S)Nc2ccc(NC(=O)c3ccccc3OC(C)=O)cc2)cc1Cl [Example 115]	8 µg/mL (≈ 16 µM)	4 µg/mL (≈ 8 µM)	98%	4 µg/mL (≈ 8 µM)	–	–	–	–
CC(NC(=S)Nc1ccc(NC(=O)c2ccccc2F)cc1)c1ccc(C#N)cc1 (stereo not shown) [Example 792]	–	–	–	–	5 µg/mL (≈ 11.9 µM)	> 7.5 µg/mL	> 10 µg/mL	–
CN(c1ccc(NC(=S)Nc2ccc(NC(=O)c3ccccc3F)cc2)cc1Cl)C1CCCCC1 [Example 238]	>10 µg/mL	>10 µg/mL	38%	>10 µg/mL	–	–	–	–
COc1cc(OC)c(NC(=S)Nc2ccc(NC(=O)c3ccccc3C(F)(F)F)cc2)cc1Cl [Example 138]	8 µg/mL (≈ 15.7 µM)	>10 µg/mL	57%	1 µg/mL (≈ 1.96 µM)	–	–	–	–
